Experimental data published in ChEMBL document CHEMBL5537178, “Discovery of TP0628103: A Highly Potent and Selective MMP-7 Inhibitor with Reduced OATP-Mediated Clearance Designed by Shifting Isoelectric Points” (J Med Chem, 2024).

Columns and labels:
CYP2C19 = CYP2C19 (Homo sapiens, UniProt P33261); test: Inhibition of CYP2C19 in human liver microsomes at 10 uM by LC-MS/MS analysis relative to control; format: ADME, Microsome
CYP1A2 = biological target: T1, CYP1A2 (Homo sapiens, UniProt P05177); test: Inhibition of CYP1A2 in human liver microsomes at 10 uM by LC-MS/MS analysis relative to control; format: ADME, Microsome
T1 sequence (P05177 whole entry): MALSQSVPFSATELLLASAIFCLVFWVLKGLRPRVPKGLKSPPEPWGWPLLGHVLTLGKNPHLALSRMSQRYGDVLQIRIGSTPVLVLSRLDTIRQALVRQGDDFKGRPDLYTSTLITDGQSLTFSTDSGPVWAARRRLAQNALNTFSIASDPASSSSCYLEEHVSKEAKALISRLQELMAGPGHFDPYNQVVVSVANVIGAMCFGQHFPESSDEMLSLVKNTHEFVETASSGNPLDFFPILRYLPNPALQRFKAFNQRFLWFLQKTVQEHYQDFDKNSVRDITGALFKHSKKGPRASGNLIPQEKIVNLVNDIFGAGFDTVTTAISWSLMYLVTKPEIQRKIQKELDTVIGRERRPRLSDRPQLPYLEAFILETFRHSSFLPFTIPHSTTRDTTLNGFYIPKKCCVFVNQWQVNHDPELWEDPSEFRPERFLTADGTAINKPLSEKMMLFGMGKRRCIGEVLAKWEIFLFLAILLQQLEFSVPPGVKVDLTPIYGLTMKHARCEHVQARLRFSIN

[1] = Plasma unbound drug concentration at steady state in UUO surgery-induced renal fibrosis C57BL/6J mouse model at 3 mg/kg/day, sc administered with mini osmotic pump measured after 3 days; format: ADME, organism-based; settings: in vivo, 72 h, time 3 day
CYP2C8 [2] = biological target: T2, CYP2C8 (Homo sapiens, UniProt P10632); test: Inhibition of CYP2C8 in human liver microsomes at 10 uM by LC-MS/MS analysis relative to control; format: ADME, Microsome
T2 sequence (P10632 whole entry): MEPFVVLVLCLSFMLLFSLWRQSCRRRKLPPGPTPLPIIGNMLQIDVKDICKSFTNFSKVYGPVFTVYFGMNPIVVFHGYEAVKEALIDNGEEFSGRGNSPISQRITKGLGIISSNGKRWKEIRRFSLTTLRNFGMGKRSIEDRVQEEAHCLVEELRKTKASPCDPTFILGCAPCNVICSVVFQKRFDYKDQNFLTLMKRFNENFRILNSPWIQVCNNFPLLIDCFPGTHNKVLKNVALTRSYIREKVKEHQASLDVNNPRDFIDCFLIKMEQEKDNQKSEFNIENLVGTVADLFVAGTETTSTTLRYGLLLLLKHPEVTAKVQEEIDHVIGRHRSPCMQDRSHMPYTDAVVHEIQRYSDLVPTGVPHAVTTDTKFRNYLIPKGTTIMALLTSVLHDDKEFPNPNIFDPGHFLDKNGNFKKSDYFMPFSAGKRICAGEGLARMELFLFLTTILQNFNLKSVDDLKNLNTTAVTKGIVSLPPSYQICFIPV

CYP2B6 = biological target: T3, CYP2B6 (Homo sapiens, UniProt P20813); test: Inhibition of CYP2B6 in human liver microsomes at 10 uM by LC-MS/MS analysis relative to control; format: ADME, Microsome
T3 sequence (P20813 whole entry): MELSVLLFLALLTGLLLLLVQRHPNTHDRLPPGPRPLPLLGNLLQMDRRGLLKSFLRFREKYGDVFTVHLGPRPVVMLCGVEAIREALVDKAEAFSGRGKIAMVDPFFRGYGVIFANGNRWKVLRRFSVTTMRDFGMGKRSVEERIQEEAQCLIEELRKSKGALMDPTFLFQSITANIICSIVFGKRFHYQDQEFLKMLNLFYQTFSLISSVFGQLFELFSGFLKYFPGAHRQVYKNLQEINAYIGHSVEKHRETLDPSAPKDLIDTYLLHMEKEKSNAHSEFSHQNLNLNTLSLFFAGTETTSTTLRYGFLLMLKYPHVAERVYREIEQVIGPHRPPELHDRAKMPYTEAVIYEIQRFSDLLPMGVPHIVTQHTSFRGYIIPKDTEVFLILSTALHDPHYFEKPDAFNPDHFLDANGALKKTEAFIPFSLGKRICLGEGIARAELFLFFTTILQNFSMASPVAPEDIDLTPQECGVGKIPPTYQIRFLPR

[3] = Volume of distribution at steady state in Sprague-Dawley rat at 0.5 mg/kg, iv; format: ADME, organism-based; settings: in vivo, read-out: Vdss
CYP3A [4] = biological target: T4, CYP3A (Homo sapiens, UniProt P08684+P20815+P24462+Q9HB55); test: Inhibition of CYP3A in human liver microsomes using midazolam as substrate at 10 uM by LC-MS/MS analysis relative to control; format: ADME, Microsome; settings: probe midazolam
CYP3A [5] = biological target: T4, CYP3A; test: Time dependent inhibition of CYP3A in human liver microsomes using midazolam as substrate at 10 uM by LC-MS/MS analysis relative to control; format: ADME, Microsome; settings: probe midazolam, read-out: TDI
CYP2D6 = CYP2D6 (Homo sapiens, UniProt P10635); test: Time dependent inhibition of CYP2D6 in human liver microsomes at 10 uM by LC-MS/MS analysis relative to control; format: ADME, Microsome; settings: read-out: TDI
Sequence of CYP2D6 (P10635 whole entry): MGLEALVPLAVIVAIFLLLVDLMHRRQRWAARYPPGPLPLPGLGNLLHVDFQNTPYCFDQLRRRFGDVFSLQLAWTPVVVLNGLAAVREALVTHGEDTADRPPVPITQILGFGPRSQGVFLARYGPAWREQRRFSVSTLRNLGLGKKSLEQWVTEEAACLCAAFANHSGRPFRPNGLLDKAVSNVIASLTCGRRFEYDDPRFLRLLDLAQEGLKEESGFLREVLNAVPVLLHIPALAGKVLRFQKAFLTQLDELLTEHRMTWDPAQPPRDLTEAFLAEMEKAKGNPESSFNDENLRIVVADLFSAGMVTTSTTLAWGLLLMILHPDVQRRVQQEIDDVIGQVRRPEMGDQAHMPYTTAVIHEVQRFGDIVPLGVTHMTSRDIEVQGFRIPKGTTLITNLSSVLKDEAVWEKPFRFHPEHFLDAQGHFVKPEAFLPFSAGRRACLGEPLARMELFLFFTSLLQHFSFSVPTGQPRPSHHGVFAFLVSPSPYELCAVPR

CYP2C8 [6] = biological target: T2, CYP2C8; test: Time dependent inhibition of CYP2C8 in human liver microsomes at 10 uM by LC-MS/MS analysis relative to control; format: ADME, Microsome; settings: read-out: TDI
[7] = Chemical stability of the compound in pH 7.4 aqueous solution assessed as degradation by measuring residual rate incubated measured after 2 weeks at 65 degC by HPLC analysis; format: physicochemical; settings: read-out: Stability
[8] = biological target: Voltage-gated inwardly rectifying potassium channel KCNH2 (Homo sapiens, UniProt Q12809); test: Inhibition of hERG at 10 uM; format: toxicity
Sequence of Voltage-gated inwardly rectifying potassium channel KCNH2 (Q12809 whole entry): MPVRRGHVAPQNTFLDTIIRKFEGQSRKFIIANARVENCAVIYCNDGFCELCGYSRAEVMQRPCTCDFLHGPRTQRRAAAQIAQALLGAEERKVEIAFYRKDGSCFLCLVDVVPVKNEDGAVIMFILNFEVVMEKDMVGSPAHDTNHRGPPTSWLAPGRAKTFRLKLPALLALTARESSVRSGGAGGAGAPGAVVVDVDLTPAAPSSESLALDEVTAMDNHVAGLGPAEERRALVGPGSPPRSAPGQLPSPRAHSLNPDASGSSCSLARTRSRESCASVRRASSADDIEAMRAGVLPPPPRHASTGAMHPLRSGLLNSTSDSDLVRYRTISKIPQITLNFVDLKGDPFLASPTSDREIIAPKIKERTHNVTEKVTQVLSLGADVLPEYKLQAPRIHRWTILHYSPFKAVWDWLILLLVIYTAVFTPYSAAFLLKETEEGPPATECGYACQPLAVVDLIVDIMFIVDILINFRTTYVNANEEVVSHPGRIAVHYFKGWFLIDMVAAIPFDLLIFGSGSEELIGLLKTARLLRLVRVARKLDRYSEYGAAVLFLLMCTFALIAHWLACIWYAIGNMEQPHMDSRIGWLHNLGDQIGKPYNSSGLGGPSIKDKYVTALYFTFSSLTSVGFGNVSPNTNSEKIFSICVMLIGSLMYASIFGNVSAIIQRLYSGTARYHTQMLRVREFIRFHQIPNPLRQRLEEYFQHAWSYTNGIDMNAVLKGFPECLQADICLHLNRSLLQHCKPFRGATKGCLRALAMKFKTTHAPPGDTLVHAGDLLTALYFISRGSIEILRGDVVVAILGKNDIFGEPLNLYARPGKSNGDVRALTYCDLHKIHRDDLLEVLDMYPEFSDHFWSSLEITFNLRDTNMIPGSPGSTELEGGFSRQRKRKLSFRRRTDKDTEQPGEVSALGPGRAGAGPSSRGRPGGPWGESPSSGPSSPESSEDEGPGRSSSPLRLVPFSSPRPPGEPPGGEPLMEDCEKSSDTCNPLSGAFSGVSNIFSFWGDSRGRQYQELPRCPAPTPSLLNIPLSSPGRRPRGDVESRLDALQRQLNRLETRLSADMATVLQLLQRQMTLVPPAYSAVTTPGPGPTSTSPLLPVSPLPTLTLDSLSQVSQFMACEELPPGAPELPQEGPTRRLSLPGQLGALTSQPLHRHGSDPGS

Interstitial collagenase = biological target: T5, Interstitial collagenase (Homo sapiens, UniProt P03956); test: Inhibition of recombinant human MMP1 assessed as enzyme activity by measuring fluorescence using fluorogenic peptide substrate
T5 sequence (P03956 whole entry): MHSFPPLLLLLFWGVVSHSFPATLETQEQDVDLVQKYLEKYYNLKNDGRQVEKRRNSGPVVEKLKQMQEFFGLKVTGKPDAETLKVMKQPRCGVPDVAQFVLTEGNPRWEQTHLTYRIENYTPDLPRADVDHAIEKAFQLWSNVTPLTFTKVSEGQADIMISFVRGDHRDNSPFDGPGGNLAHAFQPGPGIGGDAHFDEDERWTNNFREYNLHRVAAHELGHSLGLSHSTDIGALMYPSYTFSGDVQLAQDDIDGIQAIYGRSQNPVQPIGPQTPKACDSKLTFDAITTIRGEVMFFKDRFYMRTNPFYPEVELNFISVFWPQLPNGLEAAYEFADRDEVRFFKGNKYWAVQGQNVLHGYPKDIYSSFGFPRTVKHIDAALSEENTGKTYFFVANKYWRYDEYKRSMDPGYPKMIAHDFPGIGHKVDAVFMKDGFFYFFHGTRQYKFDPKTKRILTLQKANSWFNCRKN

Sequence of CYP2C19 (P33261 whole entry): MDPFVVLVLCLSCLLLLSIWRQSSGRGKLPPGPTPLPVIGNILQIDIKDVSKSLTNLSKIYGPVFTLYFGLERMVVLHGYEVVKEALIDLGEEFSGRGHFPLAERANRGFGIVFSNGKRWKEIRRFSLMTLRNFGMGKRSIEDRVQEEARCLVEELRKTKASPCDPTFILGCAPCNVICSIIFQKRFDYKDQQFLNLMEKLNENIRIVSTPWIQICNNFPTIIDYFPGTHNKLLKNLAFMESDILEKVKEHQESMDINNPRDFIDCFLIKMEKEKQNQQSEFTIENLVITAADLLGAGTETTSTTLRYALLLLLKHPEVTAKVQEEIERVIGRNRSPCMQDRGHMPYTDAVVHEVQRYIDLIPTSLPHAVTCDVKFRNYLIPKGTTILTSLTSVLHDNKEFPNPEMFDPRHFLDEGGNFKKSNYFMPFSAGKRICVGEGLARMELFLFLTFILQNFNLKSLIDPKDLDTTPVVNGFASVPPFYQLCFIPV

In the case of `CC(C)(C)[C@H](NC(=O)[C@H](Cc1ccncc1)NC(=O)CNC(=O)CC[C@H](NS(=O)(=O)c1ccc(Cl)c(C(F)(F)F)c1)C(=O)O)C(=O)Nc1ccc(C(=O)N2CCC(C(=O)N[C@H](CCCCN)C(=O)N3CC[C@H](N)C3)CC2)cc1`, the inhibition at 10 µM (CYP2C19) is reported as -4.3%, the inhibition at 10 µM (CYP1A2) is reported as 3.2% and the “Cp(f)” value [1] is reported as 31 nM. It also gave an inhibition at 10 µM (CYP2C8 [2]) of 14.4%, an inhibition at 10 µM (CYP2B6) of -6.6% and a Vd [3] of 0.179 L/kg. The inhibition at 10 µM (CYP3A [4]) was 6%, the inhibition at 10 µM (CYP3A [5]) was -5.2% and the inhibition at 10 µM (CYP2D6) was -2.9%. For the same compound, the inhibition at 10 µM (CYP2C8 [6]) was 9.1%, the remaining at 336 h [7] was 99.1% and the “inhibition (INH)” value [8] was “Not Active”. The IC50 (Interstitial collagenase) was > 10 µM.
